Values after ≈ are worked out from the molar mass of the structure shown. Where a SMILES comes first, the peptide text is derived from it.
Assays:
[1] = test system: p67^phox; experiment: Ligand-blot binding assay with biotinylated PR-39, p67phox; conditions: neutrophil cytosolic proteins probed with biotinylated PR-39
Protocol: Regulation of neutrophil O2^− production by PR-26 and PR-39. • (i) O2^− production assays. Whole-cell O2^− production by por-cine peripheral blood neutrophils was determined by the superoxide dismutase-inhibitable reduction of ferricytochrome c as previously described (Shi et al., 1994a). Cell-free O2^− production was measured as previously described (Leto et al., 1991) using 96-well plates and a Molecular Devices Thermomax microplate reader (Menlo Park, Calif.). Reactions (100 μl) contained 10^6 cell equivalents of human neutrophil cytosol and 5×10^5 cell equivalents of deoxycholate-solubilized membranes prepared from human peripheral blood neutrophils. Reaction mixtures contained 50 mM potassium phosphate (pH 7), 0.2 mM acetylated cytochrome c, 4 mM MgCl2, 1 mM EGTA, 10 μM FAD, 1 μM GTP-γS, and 200 μM NADPH. The reactions were initiated by addition of 40 μM arachidonic acid. Control reactions contained 5 μg of superoxide dismutase. Superoxide anion generation was calculated based on superoxide dismutase-inhibitable changes in cytochrome c absorbance observed at 551 nm. The reactions were followed for 20 min. after addition of arachidonic acid, with absorbance readings taken at 1-min. intervals. Maximum rates of superoxide generation were calculated from a linear least squares fit of 10 consecutive 1-min. data points. […]

[2] = test system: porcine neutrophils; experiment: Neutrophil chemotaxis, modified Boyden chamber; format: cell-based; conditions: peptide at 0.05 μM, 30 min
Protocol: Influence of PR-39 on neutrophil chemotaxis. Chemotaxis of porcine neutrophils was measured by the procedure of Salak et al. (1993). Briefly, PR-14, PR15, PR-16, PR-26, or PR-39 (30 μl in Dulbecco's Modified Eagle's medium) were placed in the bottom chamber of a modified Boyden chamber (Neuro Probe, Cabin John, Md.) and porcine neutrophils (50 μl at 5×10^6 cells/ml) were placed in the top chamber. The chambers were incubated at 37° C. for 30 min. Cells that migrated through the porous membrane (pore size 5 μm) were stained using LeukoStat solution and enumerated. Five microscope fields were counted and the cells that migrated through the membrane were standardized to the medium control and referred to as the migration index.

[3] = test system: E. coli, ATTC 25922; experiment: Lawn-spotting antibacterial assay (E. coli); format: cell-based, Escherichia coli; conditions: 5 μl spotted, inactive segments up to 1 mg/ml
[4] = test system: neutrophils
[5] = test system: S. typhimurium, KSU isolate 7; experiment: Lawn-spotting antibacterial assay (S. typhimurium); format: cell-based, Salmonella typhimurium; conditions: 5 μl spotted, inactive segments up to 1 mg/ml
[6] = test system: S. typhimurium; experiment: Postantibiotic effect (PAE); format: cell-based, Salmonella typhimurium; conditions: 2 hr exposure
Protocol: (§1) Plates were incubated at 37° C. for 18 hr. […] Viable bacteria were counted. Tests were repeated on three different days. […] The results were expressed as the mean ± standard deviation. […] S. choleraesuis, ATCC 6962 was used in this experiment. […] Slides were stained with LeukoStat solutions (Fisher, Pittsburgh, Pa.). […] At least 200 neutrophils were examined. […] Tests were repeated on three different days. Results were expressed as the mean±standard deviation.

[7] = test system: Salmonella choleraesuis; format: cell-based
Protocol: as §1

[8] = test system: whole-cell NADPH oxidase activity of porcine peripheral blood neutrophils; experiment: Whole-cell O2- production, ferricytochrome c reduction; format: cell-based
Protocol: Regulation of neutrophil O2^− production by PR-26 and PR-39. • (i) O2^− production assays. Whole-cell O2^− production by por-cine peripheral blood neutrophils was determined by the superoxide dismutase-inhibitable reduction of ferricytochrome c as previously described (Shi et al., 1994a). Cell-free O2^− production was measured as previously described (Leto et al., 1991) using 96-well plates and a Molecular Devices Thermomax microplate reader (Menlo Park, Calif.). Reactions (100 μl) contained 10^6 cell equivalents of human neutrophil cytosol and 5×10^5 cell equivalents of deoxycholate-solubilized membranes prepared from human peripheral blood neutrophils. Reaction mixtures contained 50 mM potassium phosphate (pH 7), 0.2 mM acetylated cytochrome c, 4 mM MgCl2, 1 mM EGTA, 10 μM FAD, 1 μM GTP-γS, and 200 μM NADPH. The reactions were initiated by addition of 40 μM arachidonic acid. Control reactions contained 5 μg of superoxide dismutase. Superoxide anion generation was calculated based on superoxide dismutase-inhibitable changes in cytochrome c absorbance observed at 551 nm. The reactions were followed for 20 min. after addition of arachidonic acid, with absorbance readings taken at 1-min. intervals. Maximum rates of superoxide generation were calculated from a linear least squares fit of 10 consecutive 1-min. data points. Determinations were based on reactions performed in duplicate. • (ii) Binding assays. Neutrophils were disrupted by sonication, and unbroken cells, debris, and granules were removed by centrifuigation (13,000×g for 60 min.). Cytosol fractions were prepared by centrifugation (100,000 g for 45 min.) of the supernatants to remove residual membranes. Cytosolic proteins (15 μg in reducing buffer) were separated on a 7.5% SDS PAGE gel, transferred to PVDF membranes, and probed with biotinylated PR-39 (0.3 μM) for 2 hr. Binding between PR-39 and cytosolic proteins were visualized by a chemiluminescent streptavidin alkaline phosphatase system using an Epson scanner (Torrance, Calif.) and the NIH Image program. PR-39 was labeled with biotin hydrazide at the carboxy-terminus (Pierce Chemical Co., Rockford, Ill.) and purified by gel filtration chromatography.

[9] = test system: S. choleraesuis, ATCC 6962; experiment: Bacterial susceptibility to neutrophil phagocytosis; format: cell-based, Salmonella choleraesuis; conditions: bacteria treated at 8 MICs
Protocol: as §1

[10] = test system: Escherichia coli, K88
Protocol: Briefly, 50 μl of twofold serial dilutions (128 to 0.25 μM) of synthetic peptides were dispensed into wells of 96-well tissue culture plates. Bacteria (E. coli, ATCC 25922; E. coli, K88; S. typhimurium, fresh isolate from a dog; Salmonella choleraesuis ATCC 6962; Streptococcus suis, fresh isolate from porcine spleen; and Staphylococcus aureus) from sheep-blood or brain-heart-infusion agar plates were standardized to 0.5 McFarland in demineralized water using a radiometer/sensititre (Chelsea Instrument Ltd., England). The water/bacteria suspension (100 μl) was immediately transferred to 10 ml of cation-adjusted Muller-Hinton broth and 50 μl of the bacterial suspension then were added to each well of the microtiter plate. Plates were incubated for 20 hr. at 37° C. and MICs were determined. Ten microliters of bacterial suspensions in Muller-Hinton broth also were diluted to determine the actual bacterial concentration using standard colony forming unit (CFU) counting. After determination of the MICs, 10 μl of each bacteria-peptide suspension were plated on sheep-blood or brain-heart-infusion agar plates and incubated for 24 hr. at 37° C. to determine the MBCs. MBC was considered that peptide concentration that inhibited 99.9% of the original CFUs (NCCLS, 1990). • (iv) PAE.

## CC[C@H](C)[C@H](NC(=O)[C@H](CCCNC(=N)N)NC(=O)[C@@H]1CCCN1C(=O)[C@@H]1CCCN1C(=O)[C@H](CC(C)C)NC(=O)[C@H](CCCNC(=N)N)NC(=O)[C@@H]1CCCN1C(=O)[C@@H]1CCCN1C(=O)[C@H](Cc1ccccc1)NC(=O)[C@H](Cc1ccccc1)NC(=O)[C@@H]1CCCN1C(=O)[C@@H]1CCCN1C(=O)[C@@H]1CCCN1C(=O)[C@H](CCCNC(=N)N)NC(=O)[C@@H]1CCCN1C(=O)[C@H](CCCNC(=N)N)NC(=O)[C@@H]1CCCN1C(=O)[C@H](CC(C)C)NC(=O)[C@H](Cc1ccc(O)cc1)NC(=O)[C@@H]1CCCN1C(=O)[C@@H]1CCCN1C(=O)[C@H](CCCNC(=N)N)NC(=O)[C@@H]1CCCN1C(=O)[C@H](CCCNC(=N)N)NC(=O)[C@H](CCCNC(=N)N)NC(=O)[C@@H](N)CCCNC(=N)N)C(=O)N1CCC[C@H]1C(=O)N1CCC[C@H]1C(=O)NCC(=O)N[C@@H](Cc1ccccc1)C(=O)N1CCC[C@H]1C(=O)N1CCC[C@H]1C(=O)N[C@@H](CCCNC(=N)N)C(=O)N[C@@H](Cc1ccccc1)C(=O)N1CCC[C@H]1C(=O)N1CCC[C@H]1C(=O)N[C@@H](CCCNC(=N)N)C(=O)N[C@@H](Cc1ccccc1)C(=O)N1CCC[C@H]1C(=O)O [PR-39] (H-RRRPRPPYLPRPRPPPFFPPRLPPRIPPGFPPRFPPRFP-OH; N-terminus and C-terminus assumed)
[1]
  binding to p67phox: did not bind
[2]
  neutrophil chemotaxis (migration index): chemotactic agents
[3]
  antibacterial activity (clear zone on bacterial lawn): had antibacterial activity
[4]
  neutrophil viability: did not affect neutrophil viability
[5]
  antibacterial activity (clear zone on bacterial lawn): had antibacterial activity
[6]; 0.1 MIC
  PAE (growth delay): slight growth delay
[6]; 1 MIC
  PAE: significantly increased
[6]; 8 MICs
  PAE: significantly increased
[7]
  MBC: 4 µM (≈ 18.9 µg/mL)
  MIC: 2 µM (≈ 9.44 µg/mL)
[8]; 5 μM, incubated at least 45 min. before PMA stimulation
  O2- generation by neutrophils: significant reduction
[8]; 5 μM, longer pre-incubation periods before PMA
  oxidase inhibition: ~70%
[8]; 20 μM added at the same time as PMA
  O2- generation by neutrophils: did not affect
[9]
  phagocytic index of porcine neutrophils: did not increase
[10]
  MBC: 4 µM (≈ 18.9 µg/mL)
  MIC: 2 µM (≈ 9.44 µg/mL)

— patent publication US7049396B2, “Synthetic peptides that inhibit leukocyte superoxide anion production and/or attract leukocytes” (priority 1995, dated 2006)
